Results reported in patent US12077503B2, “Substituted cyclic amides and their use as herbicides” (FMC CORPORATION, priority 2015, dated 2024).
Like-named read-outs stand apart in the source and are kept apart here.

How the values were obtained:
Format in all cases: in vivo
[1] = tested on: Kochia (Kochia scoparia); assay: Test A postemergence; conditions: Bassia scoparia, post-emergence, 240 h, 125 g ai/ha
Outline: (§1)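 In a loam soil and sand blend, planted seeds got a preemergence directed soil spray, and young plants at the one- to two-leaf stage, 2–10 cm high, got a postemergence application; ~10 d greenhouse hold; injury rated visually, 0 = none, 100 = complete control.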

[2] = tested on: wheat (Triticum aestivum); assay: Test A postemergence; conditions: Triticum aestivum, post-emergence, 240 h, 125 g ai/ha
Outline: as §1

[3] = tested on: Galium (catchweed bedstraw, Galium aparine); assay: Test A postemergence; conditions: Galium, post-emergence, 240 h, 125 g ai/ha
Outline: as §1

[4] = tested on: corn (Zea mays); assay: Test A postemergence; conditions: Zea mays, post-emergence, 240 h, 125 g ai/ha
Outline: as §1

[5] = tested on: blackgrass (Alopecurus myosuroides); assay: Test A postemergence; conditions: Alopecurus myosuroides, post-emergence, 240 h, 125 g ai/ha
Outline: as §1

[6] = tested on: giant foxtail (Setaria faberii); assay: Test A postemergence; conditions: Setaria faberi, post-emergence, 240 h, 125 g ai/ha
Outline: as §1

[7] = tested on: barnyardgrass (Echinochloa crus-galli); assay: Test A postemergence; conditions: Echinochloa crus-galli, post-emergence, 240 h, 125 g ai/ha
Outline: as §1

[8] = tested on: ragweed (common ragweed, Ambrosia elatior); assay: Test A postemergence; conditions: Ambrosia artemisiifolia, post-emergence, 240 h, 125 g ai/ha
Outline: as §1

[9] = tested on: pigweed (Amaranthus retroflexus); assay: Test A postemergence; conditions: Amaranthus retroflexus, post-emergence, 240 h, 125 g ai/ha
Outline: as §1

[10] = tested on: ryegrass, Italian (Italian ryegrass, Lolium multiflorum); assay: Test A postemergence; conditions: Lolium multiflorum, post-emergence, 240 h, 125 g ai/ha
Outline: as §1

[11] = tested on: Kochia (Kochia scoparia); assay: Test A preemergence; conditions: Bassia scoparia, pre-emergence, 240 h; for pest or weed control at 125 g/ha: 125 g ai/ha; for pest or weed control at 500 g/ha: 500 g ai/ha
Outline: as §1

[12] = tested on: barnyardgrass (Echinochloa crus-galli); assay: Test A preemergence; conditions: Echinochloa crus-galli, pre-emergence, 240 h; for pest or weed control at 125 g/ha: 125 g ai/ha; for pest or weed control at 500 g/ha: 500 g ai/ha
Outline: as §1

[13] = tested on: ragweed (common ragweed, Ambrosia elatior); assay: Test A preemergence; conditions: Ambrosia artemisiifolia, pre-emergence, 240 h; for pest or weed control at 125 g/ha: 125 g ai/ha; for pest or weed control at 500 g/ha: 500 g ai/ha
Outline: as §1

[14] = tested on: pigweed (Amaranthus retroflexus); assay: Test A preemergence; conditions: Amaranthus retroflexus, pre-emergence, 240 h; for pest or weed control at 125 g/ha: 125 g ai/ha; for pest or weed control at 500 g/ha: 500 g ai/ha
[15] = tested on: ryegrass, Italian (Italian ryegrass, Lolium multiflorum); assay: Test A preemergence; conditions: Lolium multiflorum, pre-emergence, 240 h; for pest or weed control at 125 g/ha: 125 g ai/ha; for pest or weed control at 500 g/ha: 500 g ai/ha
Outline: as §1

Cc1cc(C)cc([C@H]2CNC(=O)[C@@H]2C(=O)Nc2ccccc2F)c1 [Compound 888]
pest or weed control at 125 g/ha ([1]; postemergence, visual injury rating after approximately 10 d, read-out: Kochia plant response rating (0 to 100 scale, 0 no effect, 100 complete control)): 0%
plant injury at 125 g/ha ([2]; postemergence, visual injury rating after approximately 10 d, read-out: Wheat plant response rating (0 to 100 scale, 0 no effect, 100 complete control)): 0%
pest or weed control at 125 g/ha ([3]; postemergence, visual injury rating after approximately 10 d, read-out: Galium plant response rating (0 to 100 scale, 0 no effect, 100 complete control)): 0%
plant injury at 125 g/ha ([4]; postemergence, visual injury rating after approximately 10 d, read-out: Corn plant response rating (0 to 100 scale, 0 no effect, 100 complete control)): 0%
pest or weed control at 125 g/ha ([5]; postemergence, visual injury rating after approximately 10 d, read-out: Blackgrass plant response rating (0 to 100 scale, 0 no effect, 100 complete control)): 20%
pest or weed control at 125 g/ha ([6]; postemergence, visual injury rating after approximately 10 d, read-out: Foxtail, Giant plant response rating (0 to 100 scale, 0 no effect, 100 complete control)): 30%
pest or weed control at 125 g/ha ([7]; postemergence, visual injury rating after approximately 10 d, read-out: Barnyardgrass plant response rating (0 to 100 scale, 0 no effect, 100 complete control)): 90%
pest or weed control at 125 g/ha ([8]; postemergence, visual injury rating after approximately 10 d, read-out: Ragweed plant response rating (0 to 100 scale, 0 no effect, 100 complete control)): 0%
pest or weed control at 125 g/ha ([9]; postemergence, visual injury rating after approximately 10 d, read-out: Pigweed plant response rating (0 to 100 scale, 0 no effect, 100 complete control)): 0%
pest or weed control at 125 g/ha ([10]; postemergence, visual injury rating after approximately 10 d, read-out: Ryegrass, Italian plant response rating (0 to 100 scale, 0 no effect, 100 complete control)): 0%
pest or weed control at 125 g/ha ([11]; preemergence, 0 to 100 scale where 0 is no effect and 100 is complete control, read-out: Kochia plant response rating): 60%
pest or weed control at 500 g/ha ([11]; Preemergence, visual injury vs untreated controls after approximately 10 d, read-out: Kochia plant response rating (0 to 100 scale where 0 is no effect and 100 is complete control)): 80%
pest or weed control at 125 g/ha ([12]; preemergence, 0 to 100 scale where 0 is no effect and 100 is complete control, read-out: Barnyardgrass plant response rating): 90%
pest or weed control at 500 g/ha ([12]; Preemergence, visual injury vs untreated controls after approximately 10 d, read-out: Barnyardgrass plant response rating (0 to 100 scale where 0 is no effect and 100 is complete control)): 90%
pest or weed control at 125 g/ha ([13]; preemergence, 0 to 100 scale where 0 is no effect and 100 is complete control, read-out: Ragweed plant response rating): 0%
pest or weed control at 500 g/ha ([13]; Preemergence, visual injury vs untreated controls after approximately 10 d, read-out: Ragweed plant response rating (0 to 100 scale where 0 is no effect and 100 is complete control)): 0%
pest or weed control at 125 g/ha ([14]; preemergence, 0 to 100 scale where 0 is no effect and 100 is complete control, read-out: Pigweed plant response rating): 0%
pest or weed control at 500 g/ha ([14]; Preemergence, visual injury vs untreated controls after approximately 10 d, read-out: Pigweed plant response rating (0 to 100 scale where 0 is no effect and 100 is complete control)): 0%
pest or weed control at 125 g/ha ([15]; preemergence, 0 to 100 scale where 0 is no effect and 100 is complete control, read-out: Ryegrass, Italian plant response rating): 0%
pest or weed control at 500 g/ha ([15]; Preemergence, visual injury vs untreated controls after approximately 10 d, read-out: Ryegrass, Italian plant response rating (0 to 100 scale where 0 is no effect and 100 is complete control)): 60%

CC(C)COc1cccc([C@H]2CNC(=O)[C@@H]2C(=O)Nc2cccc(F)c2F)c1 [Compound 965]
pest or weed control at 125 g/ha ([1]; Postemergence, visual injury after approximately 10 d, 0 to 100 scale where 0 is no effect and 100 is complete control, read-out: Plant response rating, Kochia): 0%
plant injury at 125 g/ha ([2]; Postemergence, visual injury after approximately 10 d, 0 to 100 scale where 0 is no effect and 100 is complete control, read-out: Plant response rating, Wheat): 20%
pest or weed control at 125 g/ha ([3]; Postemergence, visual injury after approximately 10 d, 0 to 100 scale where 0 is no effect and 100 is complete control, read-out: Plant response rating, Galium): 40%
Corn plant response rating (crop injury, 0 = no effect, 100 = complete kill) at 125 g/ha ([4]; Postemergence, visual injury after approximately 10 d, 0 to 100 scale where 0 is no effect and 100 is complete control): 30%
pest or weed control at 125 g/ha ([5]; Postemergence, visual injury after approximately 10 d, 0 to 100 scale where 0 is no effect and 100 is complete control, read-out: Plant response rating, Blackgrass): 30%
pest or weed control at 125 g/ha ([6]; Postemergence, visual injury after approximately 10 d, 0 to 100 scale where 0 is no effect and 100 is complete control, read-out: Plant response rating, Foxtail, Giant): 70%
pest or weed control at 125 g/ha ([7]; Postemergence, visual injury after approximately 10 d, 0 to 100 scale where 0 is no effect and 100 is complete control, read-out: Plant response rating, Barnyardgrass): 80%
pest or weed control at 125 g/ha ([8]; Postemergence, visual injury after approximately 10 d, 0 to 100 scale where 0 is no effect and 100 is complete control, read-out: Plant response rating, Ragweed): 0%
pest or weed control at 125 g/ha ([9]; Postemergence, visual injury after approximately 10 d, 0 to 100 scale where 0 is no effect and 100 is complete control, read-out: Plant response rating, Pigweed): 0%
pest or weed control at 125 g/ha ([10]; Postemergence, visual injury after approximately 10 d, 0 to 100 scale where 0 is no effect and 100 is complete control, read-out: Plant response rating, Ryegrass, Italian): 0%
pest or weed control at 125 g/ha ([11]; Preemergence, visual injury rating after approximately 10 d, read-out: Kochia plant response rating (0 to 100 scale, 0 is no effect, 100 is complete control)): 0%
pest or weed control at 500 g/ha ([11]; preemergence, visual injury rating about 10 d after treatment, 0 to 100 scale (0 no effect, 100 complete control), read-out: Kochia plant response rating): 60%
pest or weed control at 125 g/ha ([12]; Preemergence, visual injury rating after approximately 10 d, read-out: Barnyardgrass plant response rating (0 to 100 scale, 0 is no effect, 100 is complete control)): 90%
pest or weed control at 500 g/ha ([12]; preemergence, visual injury rating about 10 d after treatment, 0 to 100 scale (0 no effect, 100 complete control), read-out: Barnyardgrass plant response rating): 90%
pest or weed control at 125 g/ha ([13]; Preemergence, visual injury rating after approximately 10 d, read-out: Ragweed plant response rating (0 to 100 scale, 0 is no effect, 100 is complete control)): 0%
pest or weed control at 500 g/ha ([13]; preemergence, visual injury rating about 10 d after treatment, 0 to 100 scale (0 no effect, 100 complete control), read-out: Ragweed plant response rating): 0%
pest or weed control at 125 g/ha ([14]; Preemergence, visual injury rating after approximately 10 d, read-out: Pigweed plant response rating (0 to 100 scale, 0 is no effect, 100 is complete control)): 0%
pest or weed control at 500 g/ha ([14]; preemergence, visual injury rating about 10 d after treatment, 0 to 100 scale (0 no effect, 100 complete control), read-out: Pigweed plant response rating): 0%
pest or weed control at 125 g/ha ([15]; Preemergence, visual injury rating after approximately 10 d, read-out: Ryegrass, Italian plant response rating (0 to 100 scale, 0 is no effect, 100 is complete control)): 70%
pest or weed control at 500 g/ha ([15]; preemergence, visual injury rating about 10 d after treatment, 0 to 100 scale (0 no effect, 100 complete control), read-out: Ryegrass, Italian plant response rating): 90%
